These results are taken from PubChem BioAssay (NCI).

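Test compounds were applied to cells in 96-well plates for 48 hours at 5 doses. GI50 = concentration required for 50% inhibition of growth. Definition used: TGI = concentration required for complete inhibition of growth.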 Where only a bound is given, the exact number is not on record here.

Some test systems named below: HCT-116 colon; HL-60(TB) leukemia; SNB-19 CNS; MDA-MB-435; SNB-75 CNS; SF-268 CNS; NCI/ADR-RES ovarian; MDA-MB-231 breast; SF-295 CNS; RXF 393 renal.
What all share (test): NCI tumour cell line growth inhibition, 48 h

With `C=C(C)C1CCC2(C(=O)O)CCC3(C)C(CCC4C5(C)CCC(OC(=O)NCc6ccccc6)C(C)(C)C5CCC43C)C12` (centres undefined), the GI50 was 2.24 µM in the test with HCT-116 colon; 2.39 µM with HL-60(TB) leukemia; 25.3 µM in the test on SNB-19 CNS; 5.33 µM with MDA-MB-435; 98.4 µM with SNB-75 CNS; 4.84 µM in the test on SF-268 CNS. The GI50 in the test with NCI/ADR-RES ovarian was 3.82 µM; in the test with MDA-MB-231 breast it was 5.69 µM; with SF-295 CNS, 3.15 µM. The TGI with HCT-116 colon was 19.3 µM; with HL-60(TB) leukemia it was 28.1 µM; with SNB-19 CNS, greater than 100 µM; in the test on MDA-MB-435, greater than 100 µM; with SNB-75 CNS, greater than 100 µM; in the test with SF-268 CNS, greater than 100 µM. Also, the TGI in the test with NCI/ADR-RES ovarian was greater than 100 µM; in the test with MDA-MB-231 breast, 54.3 µM; in the test on SF-295 CNS, greater than 100 µM.
In the case of `O=C1OC(c2ccco2)=N/C1=C\c1cccc([N+](=O)[O-])c1`, the TGI in the test with HCT-116 colon, in the test on HL-60(TB) leukemia, with SNB-19 CNS, with MDA-MB-435, with SNB-75 CNS and with SF-268 CNS was greater than 100 µM in each case. Moreover, the TGI in the test with MDA-MB-231 breast and in the test with SF-295 CNS was greater than 100 µM each time.
As for `CO[C@H]1C=C[C@@]23c4cc5c(cc4CO[C@]2(O)CN(C)[C@H]3C1)OCO5`, the TGI in the test with HCT-116 colon, in the test with HL-60(TB) leukemia, in the test on SNB-19 CNS, with MDA-MB-435, in the test with SNB-75 CNS and in the test on SF-268 CNS was greater than 100 µM each time. Moreover, the TGI in the test on NCI/ADR-RES ovarian, in the test on MDA-MB-231 breast and in the test on SF-295 CNS was greater than 100 µM throughout.
As to `COC(=O)C(NC(=O)c1ccccc1)c1ccco1` (centres undefined), the TGI in the test on HCT-116 colon, in the test with HL-60(TB) leukemia, with SNB-19 CNS, in the test on MDA-MB-435, in the test on SNB-75 CNS and with SF-268 CNS was greater than 100 µM throughout. The TGI in the test with NCI/ADR-RES ovarian, in the test on RXF 393 renal and with SF-295 CNS was greater than 100 µM each time.
As for `Cc1ccc(NC(=O)c2sc3nc(C)c(C(O)c4ccccc4)cc3c2N)cc1` (centres undefined), the GI50 in the test on HCT-116 colon is 0.381 µM; in the test with HL-60(TB) leukemia, 0.293 µM; in the test on SNB-19 CNS, 0.542 µM; in the test on SNB-75 CNS it was 0.245 µM; in the test with SF-268 CNS, 2.47 µM; in the test on NCI/ADR-RES ovarian, 0.39 µM. Further, the GI50 in the test with MDA-MB-231 breast was 0.777 µM; in the test on RXF 393 renal, 0.333 µM; in the test on SF-295 CNS it was 0.339 µM. In addition, the TGI with HCT-116 colon was 12.2 µM; in the test on HL-60(TB) leukemia it was 0.909 µM; with SNB-19 CNS it was greater than 100 µM; in the test with SNB-75 CNS, 13.6 µM; in the test on SF-268 CNS it was greater than 100 µM; with NCI/ADR-RES ovarian, 18.9 µM. The TGI with MDA-MB-231 breast amounted to 21.8 µM; in the test on RXF 393 renal, 3.29 µM; in the test with SF-295 CNS it was 4.03 µM.
Consider `COc1ccc(-c2nnc(COc3ccc(NC(=O)Nc4ccc(Cl)c(C(F)(F)F)c4)cc3F)o2)cc1`, for which the GI50 is 2.49 µM in the test with HCT-116 colon; 2.41 µM in the test on HL-60(TB) leukemia; 4.02 µM with SNB-19 CNS; 3.8 µM in the test on MDA-MB-435; 1.48 µM with SNB-75 CNS; 6.01 µM with SF-268 CNS. Further, the GI50 in the test with NCI/ADR-RES ovarian is 3.28 µM; in the test on MDA-MB-231 breast, 1.91 µM; with SF-295 CNS it was 2.48 µM. For the same molecule, the TGI turned out to be 11.7 µM in the test with HCT-116 colon; 6.12 µM in the test on HL-60(TB) leukemia; 24.2 µM with SNB-19 CNS; 36.9 µM with MDA-MB-435; 8.36 µM in the test with SNB-75 CNS; 36.1 µM in the test with SF-268 CNS. The values for the TGI with NCI/ADR-RES ovarian, in the test on MDA-MB-231 breast and in the test on SF-295 CNS were greater than 100 µM, 8.72 µM and 9.06 µM, respectively.
In the case of `COc1cc2c(c(OC)c1OC)-c1c(cc3c(c1OC)OCO3)C1OC2C(C)C1C` (centres undefined) (tested in a mixture with another compound), the TGI with HCT-116 colon, with HL-60(TB) leukemia, in the test with SNB-19 CNS, in the test on MDA-MB-435, in the test with SNB-75 CNS and in the test on SF-268 CNS was greater than 100 µM each time. Moreover, the TGI in the test on MDA-MB-231 breast, in the test on RXF 393 renal and in the test on SF-295 CNS was greater than 100 µM throughout.
For the molecule `CN1C(=O)c2ccccc2NC(=O)C12O[C@@H]2c1cccc(O)c1` (some centres undefined), the TGI in the test with HCT-116 colon, in the test with HL-60(TB) leukemia, in the test with SNB-19 CNS, with MDA-MB-435, with SNB-75 CNS and with SF-268 CNS was greater than 100 µM throughout. For the same molecule, the TGI in the test on NCI/ADR-RES ovarian, in the test with MDA-MB-231 breast and with SF-295 CNS was greater than 100 µM each time.
For the molecule `COc1ncc(-c2ccc3ncnc(Nc4cccc(Cl)c4)c3c2)cc1NS(=O)(=O)CCN1CCOCC1`, the GI50 is 1.49 µM in the test with HCT-116 colon; 0.38 µM with HL-60(TB) leukemia; 0.945 µM with SNB-19 CNS; 0.534 µM in the test on MDA-MB-435; less than 0.01 µM in the test on SNB-75 CNS; 0.382 µM with SF-268 CNS. Further, the TGI in the test with HCT-116 colon was greater than 100 µM; in the test on HL-60(TB) leukemia it was greater than 100 µM; in the test on SNB-19 CNS it was greater than 100 µM; in the test on MDA-MB-435 it was greater than 100 µM; in the test with SNB-75 CNS, 0.739 µM; in the test on SF-268 CNS, greater than 100 µM.
Consider `Cc1ccc2[nH]c(C(=O)NN3C(=O)C(C)SC34CCCC(C)C4)c(-c3ccccc3)c2c1` (centres undefined), for which the GI50 was 75.7 µM in the test on HCT-116 colon; greater than 100 µM with SNB-19 CNS; greater than 100 µM in the test with MDA-MB-435; 60.1 µM with SNB-75 CNS; 64.8 µM with SF-268 CNS; greater than 100 µM in the test with MDA-MB-231 breast. The GI50 in the test with RXF 393 renal is 17.1 µM; with SF-295 CNS, 68.5 µM. Also, the TGI with HCT-116 colon, in the test with SNB-19 CNS, in the test on MDA-MB-435, in the test with SNB-75 CNS, in the test on SF-268 CNS and in the test with MDA-MB-231 breast was greater than 100 µM throughout. The values for the TGI in the test on RXF 393 renal and with SF-295 CNS were 84.7 µM and greater than 100 µM, respectively.
As to `COc1ccc(-n2cc(-c3cc(OC)c(OC)c(OC)c3)[nH]c2=O)cc1Cl`, the GI50 in the test with HCT-116 colon was greater than 100 µM; in the test on HL-60(TB) leukemia, greater than 100 µM; with SNB-19 CNS it was 42.6 µM; with MDA-MB-435, greater than 100 µM; with SNB-75 CNS it was 6.69 µM; in the test on SF-268 CNS it was 40.8 µM. In addition, the GI50 with NCI/ADR-RES ovarian is greater than 100 µM; with MDA-MB-231 breast, 34.9 µM; in the test on SF-295 CNS, 48.9 µM. The TGI was greater than 100 µM in the test with HCT-116 colon; greater than 100 µM in the test on HL-60(TB) leukemia; greater than 100 µM in the test with SNB-19 CNS; greater than 100 µM in the test with MDA-MB-435; 28.8 µM in the test on SNB-75 CNS; greater than 100 µM in the test on SF-268 CNS. Further, the TGI in the test with NCI/ADR-RES ovarian, in the test with MDA-MB-231 breast and with SF-295 CNS was greater than 100 µM throughout.
Turning to `COc1cc2c3c(n(CCCCOC(=O)C(Cl)(Cl)Cl)c(=O)c2cc1OC)-c1cc2c(cc1C3=O)OCO2`, the GI50 was 17 µM in the test with HCT-116 colon; greater than 100 µM with HL-60(TB) leukemia; greater than 100 µM with SNB-19 CNS; greater than 100 µM in the test with MDA-MB-435; greater than 100 µM in the test with SNB-75 CNS; 30 µM in the test with SF-268 CNS. The figures for the GI50 in the test with NCI/ADR-RES ovarian, in the test on MDA-MB-231 breast and with SF-295 CNS were 82.7 µM, 50.3 µM and 8.71 µM, respectively. For the same molecule, the TGI with HCT-116 colon is 34.2 µM; in the test on HL-60(TB) leukemia, greater than 100 µM; in the test with SNB-19 CNS, greater than 100 µM; with MDA-MB-435, greater than 100 µM; in the test on SNB-75 CNS, greater than 100 µM; with SF-268 CNS it was greater than 100 µM. Also, the TGI with NCI/ADR-RES ovarian, with MDA-MB-231 breast and with SF-295 CNS was greater than 100 µM each time.
For the molecule `FC(F)(F)c1nc(-c2ccccc2)oc1Sc1nnc(Sc2oc(-c3ccccc3)nc2C(F)(F)F)s1`, the TGI was greater than 100 µM in the test on HCT-116 colon; 19.7 µM in the test on HL-60(TB) leukemia; greater than 100 µM with SNB-19 CNS; greater than 100 µM with SNB-75 CNS; greater than 100 µM in the test with SF-268 CNS; 49.3 µM in the test on RXF 393 renal. This molecule had a TGI in the test on SF-295 CNS greater than 100 µM.
As for `CC1=N/C(=C\c2cccc([N+](=O)[O-])c2)C(=O)O1`, the TGI in the test on HCT-116 colon was greater than 100 µM; with HL-60(TB) leukemia it was greater than 100 µM; in the test with SNB-19 CNS, greater than 100 µM; in the test on SNB-75 CNS, 91 µM; with SF-268 CNS, greater than 100 µM; with RXF 393 renal, greater than 100 µM. This molecule also had a TGI with SF-295 CNS greater than 100 µM.
With `COc1cc2c(c(OC)c1OC)C(=O)[C@@H]1c3ccc([N+](=O)[O-])cc3C(=O)N(CCCBr)[C@H]21`, the GI50 in the test with HCT-116 colon was 4.59 µM; in the test on HL-60(TB) leukemia, 64.2 µM; with SNB-19 CNS, 22 µM; in the test with MDA-MB-435, 2.79 µM; in the test with SNB-75 CNS, 9.46 µM; in the test with SF-268 CNS, 8.6 µM. Besides, the GI50 is 11 µM in the test with NCI/ADR-RES ovarian, 2.99 µM in the test on MDA-MB-231 breast and 2.04 µM in the test on SF-295 CNS. Moreover, the TGI in the test on HCT-116 colon is 51 µM; with HL-60(TB) leukemia, greater than 100 µM; in the test on SNB-19 CNS it was greater than 100 µM; in the test on MDA-MB-435 it was 14.7 µM; in the test on SNB-75 CNS, 45.1 µM; with SF-268 CNS, 41.6 µM. Moreover, the values for the TGI in the test on NCI/ADR-RES ovarian, with MDA-MB-231 breast and in the test with SF-295 CNS were 44.9 µM, 25.3 µM and 19.7 µM, respectively.
